How the values were obtained:
[1] = Cytotoxicity against human HepG2(2.2.15) cells; assay type: cell-based
Hepatitis B virus [2] = test: Antiviral activity against Hepatitis B virus infected in human HepG2(2.2.15) cells assessed as reduction in hepatitis B surface antigen release; assay type: functional, organism-based
Hepatitis B virus [3] = test: Antiviral activity against Hepatitis B virus infected in human HepG2(2.2.15) cells assessed as reduction in hepatitis B e-antigen release; assay type: functional, organism-based
Hepatitis B virus [4] = test: Antiviral activity against Hepatitis B virus infected in human HepG2(2.2.15) cells assessed as reduction in viral DNA replication; assay type: functional, organism-based
[5] = Selectivity index, ratio of CC50 for human HepG2(2.2.15) cells to IC50 for HBV by viral DNA replication detection assay; assay type: functional

SMILES | CC50 [1] [µM] | IC50 (Hepatitis B virus [2]) [µM] | IC50 (Hepatitis B virus [3]) [µM] | IC50 (Hepatitis B virus [4]) [µM] | Ratio CC50/IC50 [5]
CC1(C)[C@@H](O)CC[C@]2(C)[C@H]3C(=O)C=C4[C@@H]5C[C@@](C)(C(=O)OCc6cccc(Cl)c6)CC[C@]5(C)CC[C@@]4(C)[C@]3(C)CC[C@@H]12 | > 1850 | > 1850 | > 1850 | 529 | >3.5
COc1cc(/C=C/C(=O)O[C@H]2CC[C@]3(C)[C@H]4CC=C5[C@@H]6C[C@@](C)(C(=O)OCc7ccc(Br)cc7F)CC[C@]6(C)CC[C@@]5(C)[C@]4(C)CC[C@H]3C2(C)C)cc(OC)c1OC | 935 | > 1030 | > 1030 | > 259 | –
CC1(C)[C@@H](O)CC[C@]2(C)[C@H]3C(=O)C=C4[C@@H]5C[C@@](C)(C(=O)OCCCCCCO)CC[C@]5(C)CC[C@@]4(C)[C@]3(C)CC[C@@H]12 | 67.3 | 129 | > 1250 | 47.7 | 1.4
CC1(C)[C@@H](O)CC[C@]2(C)[C@H]3CC=C4[C@@H]5C[C@@](C)(C(=O)OCc6ccc(Br)cc6F)CC[C@]5(C)CC[C@@]4(C)[C@]3(C)CC[C@@H]12 | 1150 | > 1530 | > 1530 | > 382 | –
CCCCCCOC(=O)[C@@]1(C)CC[C@]2(C)CC[C@]3(C)C(=CC(=O)[C@@H]4[C@@]5(C)CC[C@H](O)C(C)(C)[C@@H]5CC[C@]43C)[C@@H]2C1 | 175 | > 1700 | > 1700 | 66.2 | 2.6
CCCCCCCCCCOC(=O)[C@@]1(C)CC[C@]2(C)CC[C@]3(C)C(=CC(=O)[C@@H]4[C@@]5(C)CC[C@H](O)C(C)(C)[C@@H]5CC[C@]43C)[C@@H]2C1 | > 1030 | > 1030 | > 1030 | > 257 | –
CC1(C)[C@@H](O)CC[C@]2(C)[C@H]3C(=O)C=C4[C@@H]5C[C@@](C)(C(=O)OCc6ccc(C(F)(F)F)cc6)CC[C@]5(C)CC[C@@]4(C)[C@]3(C)CC[C@@H]12 | > 1370 | > 1370 | > 1370 | 5.36 | >255.9
CC(=O)O[C@H]1CC[C@]2(C)[C@H]3C(=O)C=C4[C@@H]5C[C@@](C)(C(=O)O)CC[C@]5(C)CC[C@@]4(C)[C@]3(C)CC[C@H]2C1(C)C [ACETOXOLONE] | 518 | 1000 | > 518 | 121 | 4.3
CC1(C)[C@@H](OC(=O)c2cc(=O)c3ccccc3o2)CC[C@]2(C)[C@H]3CC=C4[C@@H]5C[C@@](C)(C(=O)OCc6ccc(C(F)(F)F)cc6)CC[C@]5(C)CC[C@@]4(C)[C@]3(C)CC[C@@H]12 | > 1170 | > 1170 | > 1170 | > 293 | –
CC1(C)[C@@H](O)CC[C@]2(C)[C@H]3C(=O)C=C4[C@@H]5C[C@@](C)(C(=O)OC6CCC6)CC[C@]5(C)CC[C@@]4(C)[C@]3(C)CC[C@@H]12 | 742 | 810 | > 1810 | 89.5 | 8.3
CC1(C)[C@@H](OC(=O)c2cc(=O)c3ccccc3o2)CC[C@]2(C)[C@H]3CC=C4[C@@H]5C[C@@](C)(C(=O)OCC(N)=O)CC[C@]5(C)CC[C@@]4(C)[C@]3(C)CC[C@@H]12 | > 944 | > 944 | > 944 | > 236 | –
CC1(C)[C@@H](O)CC[C@]2(C)[C@H]3C(=O)C=C4[C@@H]5C[C@@](C)(C(=O)OCC6CCOCC6)CC[C@]5(C)CC[C@@]4(C)[C@]3(C)CC[C@@H]12 | > 1910 | > 1910 | > 1910 | > 479 | –
COC(=O)[C@@]1(C)CC[C@]2(C)CC[C@]3(C)C(=CC(=O)[C@@H]4[C@@]5(C)CC[C@H](O)C(C)(C)[C@@H]5CC[C@]43C)[C@@H]2C1 | > 1740 | > 1740 | > 1740 | > 444 | –
CCCCOC(=O)[C@@]1(C)CC[C@]2(C)CC[C@]3(C)C(=CC(=O)[C@@H]4[C@@]5(C)CC[C@H](O)C(C)(C)[C@@H]5CC[C@]43C)[C@@H]2C1 | > 986 | > 986 | > 986 | > 247 | –
CC1(C)[C@@H](O)CC[C@]2(C)[C@H]3C(=O)C=C4[C@@H]5C[C@@](C)(C(=O)OCc6ccccc6C#N)CC[C@]5(C)CC[C@@]4(C)[C@]3(C)CC[C@@H]12 | > 1540 | > 1540 | > 1540 | 195 | >7.9
CC1(C)[C@@H](O)CC[C@]2(C)[C@H]3C(=O)C=C4[C@@H]5C[C@@](C)(C(=O)OCc6cc(C(F)(F)F)cc(C(F)(F)F)c6)CC[C@]5(C)CC[C@@]4(C)[C@]3(C)CC[C@@H]12 | > 1700 | > 1700 | > 1700 | > 426 | –

Reference: ChEMBL document CHEMBL2021793, “Synthesis, biological evaluation and structure-activity relationships of glycyrrhetinic acid derivatives as novel anti-hepatitis B virus agents” (Bioorg Med Chem Lett, 2012)
